The experiment concerns the target T1, CYP4A (Homo sapiens, UniProt Q02928).
T1 construct: host or cells: bactosome, i.e. bacterial membrane preparation (own knowledge of the term)
T1 sequence (Q02928 5-519): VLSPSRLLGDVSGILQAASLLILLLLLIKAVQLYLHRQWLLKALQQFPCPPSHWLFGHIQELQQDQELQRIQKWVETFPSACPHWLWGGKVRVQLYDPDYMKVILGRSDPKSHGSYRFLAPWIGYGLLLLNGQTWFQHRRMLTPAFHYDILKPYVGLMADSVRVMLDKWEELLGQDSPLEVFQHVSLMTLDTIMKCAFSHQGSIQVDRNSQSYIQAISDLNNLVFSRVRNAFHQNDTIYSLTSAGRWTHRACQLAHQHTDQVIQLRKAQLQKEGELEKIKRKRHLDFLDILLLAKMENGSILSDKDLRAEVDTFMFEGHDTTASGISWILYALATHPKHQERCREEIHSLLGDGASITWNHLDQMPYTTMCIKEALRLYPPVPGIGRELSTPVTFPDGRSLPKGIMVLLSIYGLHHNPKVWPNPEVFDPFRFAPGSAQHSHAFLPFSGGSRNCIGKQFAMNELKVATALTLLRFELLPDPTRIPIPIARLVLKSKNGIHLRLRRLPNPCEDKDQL
As to the kind of experiment: CYP4A enzyme assay (Luciferin-ME luminescence, CYP4A bactosome). The format is biochemical. Particulars: compound concentration 5 μM. The gist of the method: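 CYP4A bactosome preincubated 15 min at room temperature with compound (5 μM) in 100 mM KPO4, 0.1% BSA, 1 mM DTT. Luciferin-ME (5 mM) plus NADPH regeneration system added, 30 min at room temperature, then detection reagent for 15 min. Inhibition derived from luminescence versus controls.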

[1] abbreviates: 25%-50%, read-out: % Inhibition 25%-50%.
[2] abbreviates: '50%-75%', read-out: % Inhibition 50%-75%.
Setting [3] is: 75% or more, read-out: % Inhibition 75% or more.

The record followed here is patent US12479821B2 (MBD CO., LTD., priority 2019, dated 2025).

Usually inhibition stands for the share of the control response that was lost under treatment.

Structures are written as SMILES. Read-outs that look alike come from different tables or passages of the source.

As for `O=C(O)c1ccc(S(=O)(=O)N2CCCC(C(=O)N3CCN(c4ccnc5cc(Cl)ccc45)CC3)C2)cc1` (stereo not drawn) [Formula 98, 4-((3-(1-(7-chloroquinolin-4-yl)piperazine-1-carbonyl)piperidin-1-yl)sulfonyl)benzoic acid], under setting [1], the inhibition at 5 µM fell in the range of 25 to 50%. Regarding `CN(C)C(=O)c1ccc(S(=O)(=O)N2CCCC(C(=O)N3CCN(c4ccnc5cc(Cl)ccc45)CC3)C2)cc1` (stereo not drawn) [Formula 99, 4-(3-(1-(7-chloroquinolin-4-yl)piperazine-4-carbonyl)piperidin-1-ylsulfonyl)-N,N-dimethylbenzamide], the inhibition at 5 µM under setting [2] fell in the range of 50 to 75%. For the compound `Cc1cc(N2CCN(C(=O)C3CCCN(S(=O)(=O)c4ccc(C(=O)O)cc4)C3)CC2)c2ccccc2n1` (stereo not drawn) [Formula 100, 4-(3-(1-(2-methylquinolin-4-yl)piperazine-4-carbonyl)piperidin-1-ylsulfonyl)benzoic acid], the inhibition at 5 µM (mark in column '25% or less', read-out: % Inhibition 25% or less) was at most 25%. As for `Cc1cc(N2CCN(C(=O)C3CCCN(S(=O)(=O)c4ccc(C(=O)N(C)C)cc4)C3)CC2)c2ccccc2n1` (stereo not drawn) [Formula 101, N,N-dimethyl-4-(3-(1-(2-methylquinolin-4-yl)piperazine-4-carbonyl)piperidin-1-ylsulfonyl)benzamide], the inhibition at 5 µM under setting [1] fell in the range of 25 to 50%.

For the compound `Cc1cc(N2CCN(C(=O)C3CCCN(S(=O)(=O)c4ccc(-c5ccncc5)cc4)C3)CC2)c2ccccc2n1` (stereo not drawn) [Formula 102, (4-(2-methylquinolin-4-yl)piperazin-1-yl) (1-((4-(pyridin-4-yl)phenyl)sulfonyl)piperidin-3-yl)methanone], the inhibition at 5 µM under setting [3] worked out at 0%. Consider `Cc1cc(N2CCN(C(=O)C3CCCN(S(=O)(=O)c4ccc(-c5cncnc5)cc4)C3)CC2)c2ccccc2n1` (stereo not drawn) [Formula 103, (4-(2-methylquinolin-4-yl)piperazin-1-yl) (1-((4-(pyrimidin-5-yl)phenyl)sulfonyl)piperidin-3-yl) methanone], for which the inhibition at 5 µM under setting [2] is 50 to 75%. On to `Cc1cc(N2CCN(C(=O)C3CCCN(S(=O)(=O)c4ccc(-c5cnc(C)nc5)cc4)C3)CC2)c2ccccc2n1` (stereo not drawn) [Formula 104, (1-((4-(2-methylpyrimidin-5-yl)phenyl)sulfonyl)piperidin-3-yl) (4-(2-methylquinolin-4-yl)piperazin-1-yl) methanone], for which the inhibition at 5 µM under setting [3] was determined as 0%. Consider `Cc1cc(N2CCN(C(=O)C3CCCN(S(=O)(=O)c4ccc(-c5cccnc5)cc4)C3)CC2)c2ccccc2n1` (stereo not drawn) [Formula 105, (4-(2-methylquinolin-4-yl)piperazin-1-yl) (1-((4-(pyridin-3-yl)phenyl)sulfonyl)piperidin-3-yl) methanone], for which the inhibition at 5 µM under setting [3] amounted to 0%.

As to `O=C(C1CCCN(S(=O)(=O)c2ccc(-c3ccncc3)cc2)C1)N1CCN(c2ccnc3cc(F)ccc23)CC1` (stereo not drawn) [Formula 106, (4-(7-fluoroquinolin-4-yl)piperazin-1-yl) (1-(4-(pyridin-4-yl)phenylsulfonyl)piperidin-3-yl) methanone], under setting [3], the inhibition at 5 µM was 0%. With `O=C([C@@H]1CCCN(S(=O)(=O)c2ccc(-c3ccncc3)cc2)C1)N1CCN(c2ccnc3cc(F)ccc23)CC1` [Formula 107, (R)-(4-(7-fluoroquinolin-4-yl)piperazin-1-yl) (1-(4-(pyridin-4-yl)phenylsulfonyl)piperidin-3-yl) methanone], the inhibition at 5 µM under setting [3] is at least 75%. As to `O=C(C1CCCN(S(=O)(=O)c2ccc(-c3cccnc3)cc2)C1)N1CCN(c2ccnc3cc(F)ccc23)CC1` (stereo not drawn) [Formula 108, (4-(7-fluoroquinolin-4-yl)piperazin-1-yl) (1-(4-(pyridin-3-yl)phenylsulfonyl)piperidin-3-yl) methanone], the inhibition at 5 µM under setting [3] was at least 75%.

Regarding `O=C(C1CCCN(S(=O)(=O)c2cccc(-c3ccncc3)c2)C1)N1CCN(c2ccnc3cc(F)ccc23)CC1` (stereo not drawn) [Formula 109, (4-(7-fluoroquinolin-4-yl)piperazin-1-yl) (1-(3-(pyridin-4-yl)phenylsulfonyl)piperidin-3-yl) methanone], the inhibition at 5 µM under setting [3] was at least 75%.

For the compound `O=C(C1CCCN(S(=O)(=O)c2cccc(-c3cccnc3)c2)C1)N1CCN(c2ccnc3cc(F)ccc23)CC1` (stereo not drawn) [Formula 110, (4-(7-fluoroquinolin-4-yl)piperazin-1-yl) (1-(3-(pyridin-3-yl)phenylsulfonyl)piperidin-3-yl) methanone], the inhibition at 5 µM under setting [3] is at least 75%. `O=C(C1CCCN(S(=O)(=O)c2ccc(-c3cncnc3)cc2)C1)N1CCN(c2ccnc3cc(F)ccc23)CC1` (stereo not drawn) [Formula 111, (4-(7-fluoroquinolin-4-yl)piperazin-1-yl) (1-(4-(pyrimidin-5-yl)phenylsulfonyl)piperidin-3-yl) methanone]: the inhibition at 5 µM under setting [3] was at least 75%.

As to `O=C(C1CCCN(S(=O)(=O)c2cccc(-c3cncnc3)c2)C1)N1CCN(c2ccnc3cc(F)ccc23)CC1` (stereo not drawn) [Formula 112, (4-(7-fluoroquinolin-4-yl)piperazin-1-yl) (1-(3-(pyrimidin-5-yl)phenylsulfonyl)piperidin-3-yl) methanone], the inhibition at 5 µM under setting [3] is at least 75%.

In the case of `O=C(C1CCCN(S(=O)(=O)c2ccc(-c3ccncc3)cc2)C1)N1CCN(c2ccnc3ccccc23)CC1` (stereo not drawn) [Formula 113, (1-(4-(pyridin-4-yl)phenylsulfonyl)piperidin-3-yl) (4-(quinolin-4-yl)piperazin-1-yl) methanone], the inhibition at 5 µM under setting [3] is at least 75%. With `O=C(C1CCCN(S(=O)(=O)c2ccc(-c3cccnc3)cc2)C1)N1CCN(c2ccnc3ccccc23)CC1` (stereo not drawn) [Formula 114, (1-(4-(pyridin-3-yl)phenylsulfonyl)piperidin-3-yl) (4-(quinolin-4-yl)piperazin-1-yl) methanone], under setting [3], the inhibition at 5 µM is at least 75%. Same read-out and setting: to `Cc1ncc(-c2ccc(S(=O)(=O)N3CCCC(C(=O)N4CCN(c5ccnc6ccccc56)CC4)C3)cc2)cn1` (stereo not drawn) [Formula 115, (1-(4-(2-methylpyrimidin-5-yl)phenylsulfonyl)piperidin-3-yl) (4-(quinolin-4-yl)piperazin-1-yl) methanone] belongs at least 75%; to `CC(=O)Nc1ccc(S(=O)(=O)N2CCCC(C(=O)N3CCN(c4ccnc5cc(Cl)ccc45)CC3)C2)cc1` (stereo not drawn) [Formula 116, N-(4-(3-(4-(7-chloroquinolin-4-yl)piperazine-1-carbonyl)piperidin-1-ylsulfonyl)phenyl) acetamide], at least 75%. Same read-out and setting: the figure for `O=C(C1CCCN(S(=O)(=O)c2ccc([N+](=O)[O-])cc2)C1)N1CCN(c2ccnc3cc(Cl)ccc23)CC1` (stereo not drawn) [Formula 117, (4-(7-chloroquinolin-4-yl)piperazin-1-yl) (1-(4-nitrophenylsulfonyl)piperidin-3-yl) methanone] is at least 75%; for `CCCCc1ccc(N=CNO)c(C)c1` [HET-0016, N-hydroxy-N′-(4-butyl-2-methylphenyl)-formamidine, reference compound] it is at least 75%.
